# Measurements: PubChem BioAssay (NCI)
#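 Test compounds were applied to cells in 96-well plates for 48 hours at 5 doses. GI50 = concentration required for 50% inhibition of growth. TGI is the concentration that stops growth completely.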
# Columns and labels:
# Experiment in all cases: NCI anticancer screen, dose series, 48 h
# 786-0 renal = test system: 786-0 renal
# A498 renal = test system: A498 renal
# A549 NSCLC = test system: A549 NSCLC
# ACHN renal = test system: ACHN renal
# BT-549 breast = test system: BT-549 breast
# CAKI-1 renal = test system: CAKI-1 renal
# CCRF-CEM leukemia = test system: CCRF-CEM leukemia
# DU-145 prostate = test system: DU-145 prostate
# EKVX NSCLC = test system: EKVX NSCLC
# HCC-2998 colon = test system: HCC-2998 colon
# HCT-116 colon = test system: HCT-116 colon
# HCT-15 colon = test system: HCT-15 colon
# HL-60(TB) leukemia = test system: HL-60(TB) leukemia
# HOP-62 NSCLC = test system: HOP-62 NSCLC
# HOP-92 NSCLC = test system: HOP-92 NSCLC
# HS 578T breast = test system: HS 578T breast
# HT29 colon = test system: HT29 colon
# IGROV1 ovarian = test system: IGROV1 ovarian
# KM12 colon = test system: KM12 colon
# M14 melanoma = test system: M14 melanoma
# MALME-3M melanoma = test system: MALME-3M melanoma
# MCF7 breast = test system: MCF7 breast
# MDA-MB-231 breast = test system: MDA-MB-231 breast
# MDA-MB-435 = test system: MDA-MB-435
# NCI-H226 lung = test system: NCI-H226 lung
# NCI-H23 lung = test system: NCI-H23 lung
# NCI-H460 lung = test system: NCI-H460 lung
# NCI-H522 lung = test system: NCI-H522 lung
# NCI/ADR-RES ovarian = test system: NCI/ADR-RES ovarian
# OVCAR-3 ovarian = test system: OVCAR-3 ovarian
# OVCAR-4 ovarian = test system: OVCAR-4 ovarian
# OVCAR-5 ovarian = test system: OVCAR-5 ovarian
# OVCAR-8 ovarian = test system: OVCAR-8 ovarian
# PC-3 prostate = test system: PC-3 prostate
# RPMI-8226 leukemia = test system: RPMI-8226 leukemia
# RXF 393 renal = test system: RXF 393 renal
# SF-268 CNS = test system: SF-268 CNS
# SF-295 CNS = test system: SF-295 CNS
# SF-539 CNS = test system: SF-539 CNS
# SK-MEL-2 melanoma = test system: SK-MEL-2 melanoma
# SK-MEL-28 melanoma = test system: SK-MEL-28 melanoma
# SK-MEL-5 melanoma = test system: SK-MEL-5 melanoma
# SK-OV-3 ovarian = test system: SK-OV-3 ovarian
# SN12C renal = test system: SN12C renal
# SNB-19 CNS = test system: SNB-19 CNS
# SNB-75 CNS = test system: SNB-75 CNS
# SW-620 colon = test system: SW-620 colon
# TK-10 renal = test system: TK-10 renal
# U251 CNS = test system: U251 CNS
# UACC-257 melanoma = test system: UACC-257 melanoma
# UACC-62 melanoma = test system: UACC-62 melanoma
# UO-31 renal = test system: UO-31 renal
smiles,measurement,setting,value
COc1ccc(OC)c(-c2cn3nc(-c4c[nH]c5ccc(Br)cc45)sc3n2)c1,GI50,786-0 renal,2.16 µM
same,TGI,786-0 renal,4.57 µM
same,GI50,A498 renal,10.2 µM
same,TGI,A498 renal,24.6 µM
same,GI50,A549 NSCLC,2.31 µM
same,TGI,A549 NSCLC,5.31 µM
same,GI50,ACHN renal,2.02 µM
same,TGI,ACHN renal,6.49 µM
same,GI50,BT-549 breast,2.9 µM
same,TGI,BT-549 breast,11.2 µM
same,GI50,CAKI-1 renal,2.04 µM
same,TGI,CAKI-1 renal,6.22 µM
same,GI50,CCRF-CEM leukemia,3.73 µM
same,TGI,CCRF-CEM leukemia,> 100 µM
same,GI50,DU-145 prostate,2.8 µM
same,TGI,DU-145 prostate,7.71 µM
same,GI50,EKVX NSCLC,2.83 µM
same,TGI,EKVX NSCLC,11.4 µM
same,GI50,HCC-2998 colon,2.67 µM
same,TGI,HCC-2998 colon,7.75 µM
same,GI50,HCT-116 colon,1.67 µM
same,TGI,HCT-116 colon,3.28 µM
same,GI50,HCT-15 colon,2.11 µM
same,TGI,HCT-15 colon,5.47 µM
same,GI50,HL-60(TB) leukemia,9.21 µM
same,TGI,HL-60(TB) leukemia,> 100 µM
same,GI50,HOP-62 NSCLC,2.7 µM
same,TGI,HOP-62 NSCLC,13.3 µM
same,GI50,HOP-92 NSCLC,2.01 µM
same,TGI,HOP-92 NSCLC,5.68 µM
same,GI50,HS 578T breast,2.87 µM
same,TGI,HS 578T breast,14.5 µM
same,GI50,HT29 colon,2.28 µM
same,TGI,HT29 colon,4.75 µM
same,GI50,IGROV1 ovarian,2.27 µM
same,TGI,IGROV1 ovarian,11.5 µM
same,GI50,KM12 colon,2.19 µM
same,TGI,KM12 colon,6.24 µM
same,GI50,M14 melanoma,2.1 µM
same,TGI,M14 melanoma,4.75 µM
same,GI50,MALME-3M melanoma,2.25 µM
same,TGI,MALME-3M melanoma,4.93 µM
same,GI50,MCF7 breast,1.77 µM
same,TGI,MCF7 breast,5.13 µM
same,GI50,MDA-MB-231 breast,1.73 µM
same,TGI,MDA-MB-231 breast,4.05 µM
same,GI50,MDA-MB-435,2.42 µM
same,TGI,MDA-MB-435,5.83 µM
same,GI50,NCI-H226 lung,10.3 µM
same,TGI,NCI-H226 lung,39.8 µM
same,GI50,NCI-H23 lung,1.99 µM
same,TGI,NCI-H23 lung,4.82 µM
same,GI50,NCI-H460 lung,2.04 µM
same,TGI,NCI-H460 lung,4.17 µM
same,GI50,NCI-H522 lung,1.98 µM
same,TGI,NCI-H522 lung,4.81 µM
same,GI50,NCI/ADR-RES ovarian,3.38 µM
same,TGI,NCI/ADR-RES ovarian,10.9 µM
same,GI50,OVCAR-3 ovarian,1.96 µM
same,TGI,OVCAR-3 ovarian,4.32 µM
same,GI50,OVCAR-4 ovarian,1.8 µM
same,TGI,OVCAR-4 ovarian,3.8 µM
same,GI50,OVCAR-5 ovarian,3.52 µM
same,TGI,OVCAR-5 ovarian,15.6 µM
same,GI50,OVCAR-8 ovarian,3.01 µM
same,TGI,OVCAR-8 ovarian,9.3 µM
same,GI50,PC-3 prostate,1.87 µM
same,TGI,PC-3 prostate,4.66 µM
same,GI50,RPMI-8226 leukemia,3.19 µM
same,TGI,RPMI-8226 leukemia,20.4 µM
same,GI50,RXF 393 renal,3.19 µM
same,TGI,RXF 393 renal,8.82 µM
same,GI50,SF-268 CNS,2.7 µM
same,TGI,SF-268 CNS,7.6 µM
same,GI50,SF-295 CNS,4.7 µM
same,TGI,SF-295 CNS,16.3 µM
same,GI50,SF-539 CNS,1.78 µM
same,TGI,SF-539 CNS,3.41 µM
same,GI50,SK-MEL-2 melanoma,3.33 µM
same,TGI,SK-MEL-2 melanoma,13.4 µM
same,GI50,SK-MEL-28 melanoma,3.29 µM
same,TGI,SK-MEL-28 melanoma,11.7 µM
same,GI50,SK-MEL-5 melanoma,3.86 µM
same,TGI,SK-MEL-5 melanoma,15.2 µM
same,GI50,SK-OV-3 ovarian,9.01 µM
same,TGI,SK-OV-3 ovarian,22.8 µM
same,GI50,SN12C renal,2.74 µM
same,TGI,SN12C renal,10 µM
same,GI50,SNB-19 CNS,4.51 µM
same,TGI,SNB-19 CNS,18.6 µM
same,GI50,SNB-75 CNS,3.72 µM
same,TGI,SNB-75 CNS,24.3 µM
same,GI50,SW-620 colon,2.26 µM
same,TGI,SW-620 colon,5.28 µM
same,GI50,TK-10 renal,3.18 µM
same,TGI,TK-10 renal,6.54 µM
same,GI50,U251 CNS,2.02 µM
same,TGI,U251 CNS,4.09 µM
same,GI50,UACC-257 melanoma,7.45 µM
same,TGI,UACC-257 melanoma,30.7 µM
same,GI50,UACC-62 melanoma,3.15 µM
same,TGI,UACC-62 melanoma,13.2 µM
same,GI50,UO-31 renal,1.67 µM
same,TGI,UO-31 renal,11.2 µM
